# Source: PMC7686313, “Phase 1 study of mTORC1/2 inhibitor sapanisertib (TAK-228) in advanced solid tumours, with an expansion phase in renal, endometrial or bladder cancer” (British Journal of Cancer, 2020)
# Assay: Safety (adverse events, NCI CTCAE v4.0), expansion phase
# Settings: expansion QW 30 mg
# Text: Based on data collected during dose-escalation, the expansion phase evaluated the safety and efficacy of QD and QW sapanisertib in patients with RCC, endometrial or bladder cancer. Patients could continue receiving sapanisertib for ≤1 year (or beyond, if the investigator and sponsor agreed) in the absence of disease progression or unacceptable toxicity.
# Patients who received ≥1 dose of sapanisertib were included in the safety population. The response-evaluable population included patients who received ≥1 dose of sapanisertib, had measurable disease at baseline, and had ≥1 postbaseline assessment. […] Adverse events (AEs) were assessed using the National Cancer Institute Common Terminology Criteria for Adverse Events, v4.0. Patients were provided with a home blood-glucose meter to monitor their fasting predose blood-glucose measurements to assess hyperglycaemia as an on-target AE and PD marker.
structure (smiles),measurement,value
CC(C)n1nc(-c2ccc3oc(N)nc3c2)c2c(N)ncnc21 [Sapanisertib],"Abdominal pain, all-grade AE of any cause",6 (35) n (%)
same,"Abdominal pain, grade ≥3 AE of any cause",0 (0) n (%)
same,"Acute kidney injury, grade ≥3 AE of any cause",0 (0) n (%)
same,"Acute kidney injury, treatment-related AE",0 (0) n (%)
same,"Anaemia, all-grade AE of any cause",2 (12) n (%)
same,"Anaemia, grade ≥3 AE of any cause",1 (6) n (%)
same,"Anaemia, treatment-related AE",2 (12) n (%)
same,Any AE,17 (100) n (%)
same,Any AE resulting in dose modification/interruption,8 (47) n (%)
same,Any AE resulting in treatment discontinuation,3 (18) n (%)
same,Any SAE,6 (35) n (%)
same,Any grade ≥3 AE,9 (53) n (%)
same,Any treatment-related AE,17 (100) n (%)
same,Any treatment-related SAE,3 (18) n (%)
same,Any treatment-related grade ≥3 AE,6 (35) n (%)
same,"Arthralgia, all-grade AE of any cause",2 (12) n (%)
same,"Asthenia, grade ≥3 AE of any cause",0 (0) n (%)
same,"Asthenia, treatment-related AE",1 (6) n (%)
same,"Asthenia, treatment-related grade ≥3 AE",0 (0) n (%)
same,"Blood creatinine increased, all-grade AE of any cause",4 (24) n (%)
same,"Blood creatinine increased, treatment-related AE",1 (6) n (%)
same,"Constipation, all-grade AE of any cause",8 (47) n (%)
same,"Constipation, grade ≥3 AE of any cause",1 (6) n (%)
same,"Cough, all-grade AE of any cause",5 (29) n (%)
same,"Decreased appetite, all-grade AE of any cause",7 (41) n (%)
same,"Decreased appetite, treatment-related AE",6 (35) n (%)
same,"Dehydration, all-grade AE of any cause",4 (24) n (%)
same,"Dehydration, grade ≥3 AE of any cause",0 (0) n (%)
same,"Dehydration, treatment-related AE",2 (12) n (%)
same,"Dehydration, treatment-related grade ≥3 AE",0 (0) n (%)
same,"Depression, all-grade AE of any cause",4 (24) n (%)
same,"Diarrhoea, all-grade AE of any cause",8 (47) n (%)
same,"Diarrhoea, grade ≥3 AE of any cause",0 (0) n (%)
same,"Diarrhoea, treatment-related AE",5 (29) n (%)
same,"Diarrhoea, treatment-related grade ≥3 AE",0 (0) n (%)
same,"Dizziness, all-grade AE of any cause",0 (0) n (%)
same,"Dry mouth, all-grade AE of any cause",3 (18) n (%)
same,"Dry mouth, treatment-related AE",1 (6) n (%)
same,"Dysgeusia, all-grade AE of any cause",4 (24) n (%)
same,"Dysgeusia, treatment-related AE",3 (18) n (%)
same,"Dyspepsia, treatment-related AE",3 (18) n (%)
same,"Dyspnoea, grade ≥3 AE of any cause",0 (0) n (%)
same,"Fatigue, all-grade AE of any cause",11 (65) n (%)
same,"Fatigue, grade ≥3 AE of any cause",2 (12) n (%)
same,"Fatigue, treatment-related AE",11 (65) n (%)
same,"Fatigue, treatment-related grade ≥3 AE",2 (12) n (%)
same,"Haematuria, grade ≥3 AE of any cause",0 (0) n (%)
same,"Headache, all-grade AE of any cause",2 (12) n (%)
same,"Headache, treatment-related AE",0 (0) n (%)
same,"Hypercholesterolemia, treatment-related AE",1 (6) n (%)
same,"Hyperglycaemia, all-grade AE of any cause",12 (71) n (%)
same,"Hyperglycaemia, grade ≥3 AE of any cause",2 (12) n (%)
same,"Hyperglycaemia, treatment-related AE",12 (71) n (%)
same,"Hyperglycaemia, treatment-related grade ≥3 AE",2 (12) n (%)
same,"Hyperkalaemia, grade ≥3 AE of any cause",0 (0) n (%)
same,"Hypertension, grade ≥3 AE of any cause",0 (0) n (%)
same,"Hypokalaemia, grade ≥3 AE of any cause",1 (6) n (%)
same,"Hyponatremia, grade ≥3 AE of any cause",1 (6) n (%)
same,"Hypophosphatemia, grade ≥3 AE of any cause",2 (12) n (%)
same,"Hypophosphatemia, treatment-related AE",2 (12) n (%)
same,"Hypophosphatemia, treatment-related grade ≥3 AE",1 (6) n (%)
same,"Lymphopenia, grade ≥3 AE of any cause",0 (0) n (%)
same,"Lymphopenia, treatment-related grade ≥3 AE",0 (0) n (%)
same,"Musculoskeletal chest pain, grade ≥3 AE of any cause",0 (0) n (%)
same,"Nausea, all-grade AE of any cause",13 (76) n (%)
same,"Nausea, grade ≥3 AE of any cause",2 (12) n (%)
same,"Nausea, treatment-related AE",11 (65) n (%)
same,"Nausea, treatment-related grade ≥3 AE",1 (6) n (%)
same,"Oedema peripheral, all-grade AE of any cause",1 (6) n (%)
same,On-study deaths,2 (12) n (%)
same,"Oropharyngeal pain, all-grade AE of any cause",1 (6) n (%)
same,"Pain in extremity, grade ≥3 AE of any cause",2 (12) n (%)
same,"Pneumonia, grade ≥3 AE of any cause",0 (0) n (%)
same,"Pruritus generalised, all-grade AE of any cause",4 (24) n (%)
same,"Pruritus generalised, treatment-related AE",2 (12) n (%)
same,"Pruritus generalised, treatment-related grade ≥3 AE",0 (0) n (%)
same,"Pruritus, all-grade AE of any cause",1 (6) n (%)
same,"Pruritus, treatment-related AE",1 (6) n (%)
same,"Pyrexia, all-grade AE of any cause",1 (6) n (%)
same,"Rash maculo-papular, all-grade AE of any cause",3 (18) n (%)
same,"Rash maculo-papular, grade ≥3 AE of any cause",0 (0) n (%)
same,"Rash maculo-papular, treatment-related AE",2 (12) n (%)
same,"Rash maculo-papular, treatment-related grade ≥3 AE",0 (0) n (%)
same,"Rash, treatment-related AE",0 (0) n (%)
same,"Rash, treatment-related grade ≥3 AE",0 (0) n (%)
same,"Sepsis, grade ≥3 AE of any cause",1 (6) n (%)
same,"Stomatitis (includes oropharyngeal pain and mucosal inflammation), treatment-related AE",8 (47) n (%)
same,"Stomatitis, all-grade AE of any cause",9 (53) n (%)
same,"Stomatitis, grade ≥3 AE of any cause",0 (0) n (%)
same,"Stomatitis, treatment-related grade ≥3 AE",0 (0) n (%)
same,"Thrombocytopenia, grade ≥3 AE of any cause",1 (6) n (%)
same,"Thrombocytopenia, treatment-related grade ≥3 AE",1 (6) n (%)
same,"Transitional cell carcinoma, grade ≥3 AE of any cause",1 (6) n (%)
same,"Urinary tract infection, all-grade AE of any cause",1 (6) n (%)
same,"Vomiting, all-grade AE of any cause",10 (59) n (%)
same,"Vomiting, grade ≥3 AE of any cause",1 (6) n (%)
same,"Vomiting, treatment-related AE",10 (59) n (%)
same,"Weight decreased, all-grade AE of any cause",2 (12) n (%)
same,"Weight decreased, treatment-related AE",0 (0) n (%)
